Results as given in patent US20090075925A1, “Methods and Compositions Related to APOBEC-1 Expression” (priority 2006, published 2009).
Read-outs that look alike come from different tables or passages of the source.

Experiments:
apoB mRNA editing [1] = conditions: for apoB mRNA editing, Mean ± SEM: 6 hours
Procedure: Protein phosphatase inhibitor studies. […] The compounds' effects on apoB mRNA editing were evaluated by RT-PCR and poisoned-primer extension analysis (Sowden et al. Rna 2:274-88 (1996)). The effect of 470 nM cantharidin on ACF subcellular distribution was investigated by treating primary hepatocyte cultures for 6 hours followed by nuclear and cytoplasmic extract preparation.
It was reasoned that if phosphorylation of ACF regulated editing activity, treatment of rat primary hepatocytes with phosphatase inhibitors might stimulate apoB mRNA editing activity. […] The experiments (n=4-6) were done over a number of months and therefore represent primary hepatocytes from several rats.
Editing activity was quantified from primary hepatocytes incubated with 10-100-times the EC50 of the various […] (Calbiochem).

ACF [2] = test: ACF phosphorylation in 32P-labeled rat primary hepatocytes (ACF immunoprecipitation, autoradiography); assay type: cell-based
Procedure: In vivo phosphorylation of ACF. In vivo ^32P labeling was performed by intraperitoneal injection of rats with 12.5 mCi of orthophosphoric acid (10 mCi/ml ^32PO4; NEN, Boston, Mass.) buffered with 50 mM HEPES, pH 7.0 and 150 mM NaCl. After 4 hours, rats were sacrificed and hepatic cytoplasmic and nuclear extracts prepared. Primary hepatocyte cultures in 60 mm dishes were incubated in phosphate-free Minimum Essential Eagle Media (Sigma) containing 0.1 nM porcine insulin for 6 hours and subsequently in fresh media containing 10 nM insulin (equivalent to that seen in post-prandial serum) or 0.45% to 0.9% ethanol (AAPER Alcohol and Chemical Co., Shelbyville, Ky.) (Van Mater et al. (1998), Yang et al. (2000)) plus 2.0 mCi orthophosphoric acid. Cultures were labeled for 4 hours prior to extract preparation.
To evaluate the effect of phosphatase inhibition on ACF phosphorylation, cultures were pre-incubated for 2 hours with 470 nM cantharadin in phosphate-free Waymouth's media and subsequently supplemented with 0.5 mCi ^32pO4 and incubated for an additional 4 hours. Cultures were harvested and subcellular extracts prepared.
Immunological techniques. […] For immunoprecipitation analyses all radiolabeled extracts were adjusted to 5 mM MgCl2 and digested with 100 units of DNase I (Promega), RNase T1 (Roche, Ind.), and RNase A (Sigma) for 1 hour on ice to remove radiolabeled nucleic acid. Where applicable, extracts were incubated overnight with ACF CT antibody at 4° C. and subsequently reacted with Protein A-agarose (Oncogene Research Products, Boston, Mass.) pre-washed with 1×TBS/10 mM NaF. The immuno-absorbed material was washed 3 times with 1×TBS/10 mM NaF, 3 times with 1×TBS/1 M NaCl (Yang et al. (1997)) and lastly 3 times with 1×TBS. Immuno-absorbed material to be treated with alkaline phosphatase was washed with 50 mM Tris, pH 8.4, 1 mM MgCl2, 0.1 mM ZnCl2, 25% glycerol and then incubated with 5 U CIAP for 1 hour at 30° C. and then washed 6 times with 1×TBS. ACF-antibody complexes were eluted with 3 M sodium thiocyanate, acetone precipitated and analyzed by 10.5% SDS-PAGE followed by autoradiography and/or western blotting with ACF NT antibody. For ACF immunoprecipitation from gradient fractions an equal volume of pooled gradient fractions from sedimentation zones of interest were reacted with sub-saturating amounts of ACF CT antibody to ensure that the recovery of phospho-ACF was not simply a reflection of ACF abundance in each zone.
To evaluate this, cytoplasmic and nuclear extracts from radiolabeled primary hepatocyte cultures were sedimented through 10%-50% glycerol gradients. […] The ACF immunoprecipitates were resolved by SDS-PAGE, transferred to nitrocellulose, autoradiographed and subjected to phosphorimager scanning to detect and quantify radiolabeled proteins prior to immunoblotting with the ACF NT antibody.

apoB protein = test: intracellular and secreted apoB protein in primary hepatocytes (radioimmunoassay); assay type: cell-based, rat
Procedure: The effect of Cantharidin on the abundance of intracellular and secreted apoB protein was also evaluated. Primary hepatocyte cultures were treated with Cantharidin at the IC50 of PP1 and 10-times higher (n=5 for each condition). Intracellular apoB protein in hepatocyte cytoplasmic extracts and apoB protein secreted into the media as VLDL was quantified as ng apoB protein per mg total protein in the Sparks' lab by radioimmunoassay using a monoclonal antibody against apoB as described previously (Chirieac et al. (2000), Au et al. (2004), Sparks, J D and Sparks, C E J Biol Chem 265:8854-62 (1990)) (FIG. 13). For these experiments, insulin was withdrawn from control and Cantharidin-treated cultures 24 hours prior to the addition of Cantharidin in order to isolate the effect of PP 1 inhibition in the absence of insulin stimulated kinase activity.
If alterations in ACF phosphorylation are consequently to ApoB metabolism, then intracellular ApoB protein abundance should be responsive to inhibition of PP1. This was evaluated in treated primary hepatocytes by quantifying ApoB protein in hepatocyte cytoplasmic extracts and secreted into the media as VLDL using ApoB radioimmunoassay and expressed as ng ApoB protein per mg total protein (FIG. 13). For these experiments insulin was withdrawn from control and cantharidin-treated cultures 24 hours prior to the addition of cantharidin in order to isolate the effect of PP I inhibition in the absence of insulin stimulated kinase activity. […] This is the same dose response that was reported for maximal phospho-ACF recovery Mehta, A. et al (2002)).

ACF [3] = tested on: ACF
PP1 = conditions: cited from earlier work
PP2A = conditions: cited from earlier work
AC = conditions: cited from earlier work
apoB mRNA editing [4] = test: apoB mRNA editing in McArdle cells (ethanol, ACF wild type, mutants and isoforms); assay type: cell-based, rat; conditions: wild type McArdle cells, ethanol 4 hours
Procedure: McArdle RH7777 cells (ATCC Manassas, Va.) stably expressing HA epitope-tagged APOBEC-1 (Yang et al. J Biol Chem 272:27700-6 (1997)) were treated for 4 hours with 0.9% ethanol and fractionated into nuclear extracts (Van Mater et al. (1998)).
To calibrate the system cells were incubated in the presence of ethanol for 4 hours and the amount of edited apoB mRNA determined.
The overall expression and subcellular localization of epitope tagged ACF isoforms is established by western blotting of nuclear and cytoplasmic extracts (prepared using NE-PER system; Pierce). These biochemical studies are complemented by immunofluorescence microscopy of paraformaldehyde fixed cells reacted with epitope tag or ACF isoform-specific antibodies. In pilot experiments varying levels of HA-tagged ACF43 and ACF45 were expressed by transfecting differing amounts of cDNA into McArdle or McAPOBEC cells (FIGS. 35A & C, western blots). […] ACF expression levels, subcellular localization and editing activity are determined from replicate experiments and the relative affects of overexpressing each isoform compared in the absence (negative control) or presence of ethanol and to the response seen in wild type cells (positive control).

[5] = 0.5 μM (IC50 of PP1), insulin withdrawn 24 hours before

In the case of `C=C[C@@]1(C)CC(=O)[C@]2(O)[C@@]3(C)[C@@H](O)CCC(C)(C)[C@@H]3[C@H](O)[C@H](OC(C)=O)[C@@]2(C)O1` [Forskolin], the “apoB mRNA editing, Mean” value (apoB mRNA editing [1]; 4 μM) is reported as 70.6%, the “apoB mRNA editing, Mean” value (apoB mRNA editing [1]; 40 μM) is reported as 68.5% and the “apoB mRNA editing, Mean” value (apoB mRNA editing [1]; 120 μM) is reported as 69%.

With `C[C@@]12C(=O)OC(=O)[C@]1(C)[C@H]1CC[C@@H]2O1` [Cantharidin] the “apoB mRNA editing, Mean ± SEM” value (apoB mRNA editing [1]; 4.7 nM) was 62 ± 2%, the “apoB mRNA editing, Mean ± SEM” value (apoB mRNA editing [1]; 47 nM) was 64 ± 1% and the “apoB mRNA editing, Mean ± SEM” value (apoB mRNA editing [1]; 470 nM) was 75 ± 1%. For the same compound, the “effect on apoB mRNA editing” value (apoB mRNA editing [1]; 470 nM, the IC50 for PP1) was “reproducible, but not statistically significant increase in editing”, the “apoB mRNA editing, Mean ± SEM” value (apoB mRNA editing [1]; 4.7 μM) was 91 ± 1% and the “apoB mRNA editing (increased from 66%)” value (apoB mRNA editing [1]; about 10 times the IC50 for PP1 (cantharidin 4.7 μM)) was > 90%. The “effect on apoB mRNA editing” value (apoB mRNA editing [1]; concentration not given) was “stimulated apoB mRNA editing”, the ACF phosphorylation (ACF [2]; 470 nM) was “increased” and the “reduction in intracellular (cell) apoB relative to untreated hepatocytes” value (apoB protein; [5]) was 22%. The “reduction in secreted (media) apoB relative to untreated hepatocytes” value (apoB protein; [5]) was 17%, the “reduction in secreted apoB” value (apoB protein; 5 μM) was ≥ 30% and the “reduction in intracellular apoB” value (apoB protein; 5 μM (10-times the IC50)) was ≥ 60%. For the same compound, the “nuclear ACF (control nuclear to cytoplasmic 1:1)” value (ACF [3]; 470 nM, 4 hours) was “five-fold increase in nuclear ACF”, the “nuclear ACF compared to untreated control hepatocytes” value (ACF [3]; 0.5 μM (IC50 of PP1)) was “marked increase in nuclear ACF” and the IC50 (PP1) was 473 nM. For the same compound, the IC50 (PP1; listed as cantharidin) was 470 nM, the IC50 (PP2A) was 40 nM and the IC50 (PP2A; listed as cantharidin) was 47 nM.

In the case of `CCCCCCCCCCCCCC(=O)O[C@@H]1[C@@H](C)[C@@]2(O)[C@@H](C=C(CO)C[C@]3(O)C(=O)C(C)=C[C@@H]23)[C@@H]2C(C)(C)[C@]12OC(C)=O` [PMA], the “apoB mRNA editing, Mean” value (apoB mRNA editing [1]; 500 nM) is reported as 68.8%, the “apoB mRNA editing, Mean” value (apoB mRNA editing [1]; 5 μM) is reported as 64.9% and the “apoB mRNA editing, Mean” value (apoB mRNA editing [1]; 50 μM) is reported as 63%.

In the case of `CC1(C)C(C=C(Cl)Cl)C1C(=O)OC(C#N)c1cccc(Oc2ccccc2)c1` (centres unmarked) [Cypermethrin], the “apoB mRNA editing, Mean ± SEM” value (apoB mRNA editing [1]; 50 pM) is reported as 69 ± 4%, the “apoB mRNA editing, Mean ± SEM” value (apoB mRNA editing [1]; 5 nM) is reported as 66 ± 4% and the “effect on apoB mRNA editing” value (apoB mRNA editing [1]; concentration not given) is reported as “did not affect significantly apoB mRNA editing”.

For `CC(C)NCC(O)c1ccc(O)c(O)c1` (centres unmarked) [Isoproterenol], the EC50 (AC; activation of cAMP dependent kinases) is listed as 50000 nM and the EC50 (AC; range printed with mixed units) is listed as 1 to 100000 nM.

With `CCO` [ethanol] the “editing in metabolic state of rat hepatocytes (model, basal ~65%)” value (apoB mRNA editing [1]) was ~95%, the “increase of phosphoACF in nuclear 27S editosomes” value (ACF [2]; 0.45% ethanol, 4 hours) was 3.5 fold and the “increase of phosphoserine in immunopurified ACF” value (ACF [2]; 0.9% ethanol during the labeling period) was 1.5 fold. For the same compound, the “increase in editing activity” value (apoB mRNA editing [4]) was 52% and the “percent editing (from 21%)” value (apoB mRNA editing [4]) was 32%.

For `O=S(=O)(c1cccc2c(I)cccc12)N1CCCNCC1` [ML-7], the “effect on editing in hepatocytes” value (apoB mRNA editing [1]) was “did not affect editing”.
